Common to all, as to format: cell-based
The subject of experiment [1] is P-388 (ATCC CCL-46, suspension culture of a lymphoid neoplasm from DBA/2 mouse). Put plainly: Cytotoxicity against P-388 cells, approximate IC50 from growth versus control wells. The following applies: P388, 72 h, three days of incubation. The protocol: (§1) Its antitumor activity has been detected in vitro by culturing the tumor cells following the methodology described by Bergeron et al. ^16, and by Schroeder et al ^16. Activity against different tumors as mouse lymphoma, human NSC lung carcinoma, human melanoma and human colon carcinoma has been observed.
(§2) Biological activity: Cells were maintained in logarithmic phase of growth in Eagle's Minimum Essential Medium, with Earle's Balanced Salts, with 2.0 mM L-glutamine, with non-essential amino acids, without sodium bicarbonate (EMEM/neaa); suplemented with 10% Fetal Calf Serum (FCS), 10^−2 M sodium bicarbonate and 0,1 g/l penicillin-G+ streptomycin sulfate.
(§3) The tumor cell lines employed have been P-388 (ATCC CCL-46, suspension culture of a lymphoid neoplasm from DBA/2 mouse), A-549 (ATCC CCL-185, monolayer culture of a human lung carcinoma), HT-29 (ATCC HTB-38, monolayer culture of a human colon carcinoma) and MEL-28 (ATCC […], monolayer culture of a human melanoma).
P-388 cells were seeded into 16 mm wells at 1×10^4 cells per well in 1 ml aliquots of MEM 5FCS containing the indicated concentration of drug. A separate set of cultures without drug was seeded as control growth to ensure that cells remained in exponential phase of growth. All determinations were carried out in duplicate. After three days of incubation at 37° C., 10% CO2 in a 98% humide atmosphere, an aproximate IC50 was determined by comparing the growth in wells with drug to the growth in wells control.
(§4) In Table I are presented the cytotoxicity expressed as IC50 in μg/ml and μM

The subject of experiment [2] is A-549 (ATCC CCL-185, monolayer culture of a human lung carcinoma). Put plainly: Cytotoxicity against A-549 cells, crystal violet staining, approximate IC50. The following applies: A549, 72 h, three days of incubation. The protocol:
as §1, §2, §3
(§5) A-549, HT-29 and MEL-28 were seeded into 16 mm wells at 2×10^4 cells per well in 1 ml aliquots of MEM 10FCS containing the indicated concentration of drug. A separate set of cultures without drug was seeded as control growth to ensure that cells remained in exponential phase of growth. All determinations were carried out in duplicate. After three days of incubation at 37° C., 10% CO2 in a 98% humide atmosphere, the wells were stained with 0.1% Crystal Violet. An aproximate IC50 was determined by comparing the growth in wells with drug to the growth in wells control.
as §4

Experiment [3] relates to HT-29 (ATCC HTB-38, monolayer culture of a human colon carcinoma). Put plainly: Cytotoxicity against HT-29 cells, crystal violet staining, approximate IC50. The following applies: HT-29, 72 h, three days of incubation. Here is the method: as §1, §2, §3, §5, §4
The subject of experiment [4] is MEL-28 (ATCC HTB-38, monolayer culture of a human melanoma). Kind of experiment: Cytotoxicity against MEL-28 cells, crystal violet staining, approximate IC50. The following applies: SK-MEL-28, 72 h, three days of incubation. The protocol: as §1, §2, §3, §5, §4
Experiment [5] deals with several mammalian cancer cell lines. Kind of experiment: In vitro antitumor activity by culturing tumor cells (overall statement). The following applies: mouse lymphoma, human NSC lung carcinoma, human melanoma, human colon carcinoma.
Excerpt: as §1

Data on 2 compounds can be found in US6656948B2, “Cytotoxic compounds: derivatives of the pyrido[2,3,4-kl]acridine ring system” (Universidad Complutense de Madrid, priority 1998, dated 2003).

Turning to `Cc1cc(=O)[nH]c2c1-c1nc3ccccc3c3ccnc(c13)C2=O` [IB-96213, 12-Methyl-9H-benzo[b]pyrido[4,3,2-d,e](1,7)phenantroline-8,10-dione], the half-inhibitory concentration (IC50) in experiment [1] (duplicate) was determined as 0.1 µg/mL; in experiment [1] (value in brackets), 320 nM; in experiment [2] (duplicate), 0.001 µg/mL; in experiment [2] (value in brackets), 3 nM; in experiment [3] (duplicate) it was 1 µg/mL; in experiment [3] (value in brackets), 3180 nM. Also, the IC50 in experiment [4] (duplicate) worked out at 0.001 µg/mL; in experiment [4] (value in brackets) it was 3 nM. Also, the “antitumor activity against several mammalian cancer cell lines” value in experiment [5] was “good antitumor activity”.
On to `O=C1c2c(O)ccnc2-c2nc3ccccc3c3ccnc1c23` [IB-98205, 9-hydroxybenzo[b]pyrido[4,3,2-d,e](1,10)phenantrolin-8-one], for which the IC50 in experiment [1] (duplicate) worked out at 1.25 µg/mL; in experiment [1] (value in brackets), 4180 nM; in experiment [2] (duplicate), 0.012 µg/mL; in experiment [2] (value in brackets), 40 nM; in experiment [3] (duplicate), 0.12 µg/mL; in experiment [3] (value in brackets), 400 nM. The IC50 is 0.05 µg/mL in experiment [4] (duplicate) and 170 nM in experiment [4] (value in brackets). Besides, the “antitumor activity against several mammalian cancer cell lines” value in experiment [5] is reported as “good antitumor activity”.
